Earlier results in patent US20080103122A1, “PHARMACEUTICAL COMBINATIONS FOR LIPID MANAGEMENT AND IN THE TREATMENT OF ATHEROSCLEROSIS AND HEPATIC STEATOSIS” (Schering Corporation, priority 2006, published 2008).

Test system: atherosclerotic plaques
Details: mice; Zaiss et al., Circulation 100 (18 Suppl. I): 255 (1999)

Cc1cc(C)c2c3ccccc3n(Cc3ccc([C@@H](C(=O)N[C@@H](CO)c4ccccc4)C4CCCC4)cc3)c2n1 [implitiapide, 2,2-(S)-cyclopentyl-2-{[4-(2,4-dimethyl-alpha-carbolin-9-yl)methyl]phenyl}acetic acid-(R)-phenyl-glycinol-amide]
formation of atherosclerotic plaques: prevents the formation of atherosclerotic plaques
